Laboratory results published in the supplement of paper PMC7840683.
± gives the standard deviation of the averaged measurements.

System: HepaRG
Test: LDH release cytotoxicity, % of total lysis control; higher = more cytotoxic
Conditions: 48 h
Method in brief: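 Eight-point half-log series of test chemicals, the highest at 100 µM, were given in duplicate for 48 h to single-lot HepaRG cells on collagen I-coated 96-well plates in serum-free induction medium with 0.5% DMSO. A Tecan Safire read resorufin fluorescence from CytoTox-ONE as a measure of LDH in 50 µL spent medium, with 0.1% Triton X in total lysis wells. Percent cytotoxicity was normalized to on-plate vehicle and total lysis controls and averaged over the duplicates.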

Structure (SMILES) | LDH release cytotoxicity (0.03162 µM) [%] | LDH release cytotoxicity (0.1 µM) [%] | LDH release cytotoxicity (0.3162278 µM) [%] | LDH release cytotoxicity (1 µM) [%] | LDH release cytotoxicity (3.16228 µM) [%] | LDH release cytotoxicity (10 µM) [%] | LDH release cytotoxicity (31.6228 µM) [%] | LDH release cytotoxicity (100 µM) [%] | also measured
CC(C)OC(=O)C(C)(C)Oc1ccc(C(=O)c2ccc(Cl)cc2)cc1 [Fenofibrate] | -0.938 ± 0.65 | -0.368 ± 1.6 | -0.7726 ± 0.0031 | -1.53 ± 0.59 | -0.41 ± 0.067 | -0.735 ± 0.21 | -0.291 ± 0.23 | 0.118 ± 0.2 | 
COC=C(C(=O)OC)c1ccccc1Oc1cc(Oc2ccccc2C#N)ncn1 [Azoxystrobin] | -1.32 ± 0.027 | -1.84 ± 0.078 | -2.03 ± 0.21 | -2.35 ± 1.2 | -2.2 ± 0.56 | -1.39 ± 0.089 | -1.83 ± 0.58 | 18.63 ± 0.13 | 
CC(=O)OCCOCCOCCOC(C)=O [Triethylene glycol diacetate] | -2 | -1.98 ± 0.077 | -1.83 ± 0.78 | -1.55 ± 0.41 | 0.0849 ± 2 | -1.35 ± 0.28 | -0.553 ± 0.033 | 1.55 ± 0.07 | 
CCCCC(CC)COP(=O)(OCC(CC)CCCC)OCC(CC)CCCC (configuration not stated) [Tris(2-ethylhexyl) phosphate] | -1.762 ± 0.016 | -1.14 ± 0.93 | -1.21 ± 1.2 | -1.28 ± 1.1 | -1.23 ± 0.96 | -1.26 ± 1.1 | -0.783 ± 1.4 | 0.473 ± 0.56 | 
CC(C)c1cccc(C(C)C)c1 [1,3-Diisopropylbenzene] |  | -2.55 ± 1.5 |  | -4.25 ± 0.7 | -3.82 ± 0.32 | -2.51 ± 1.5 | -1.16 ± 0.34 | 0.451 ± 1.2 | LDH release cytotoxicity (0.031623 µM): -1.99 ± 0.73%; LDH release cytotoxicity (0.316228 µM): -2.42 ± 1.3%
Nc1ccc(Cc2ccc(N)cc2)cc1 [4,4'-Diaminobiphenyl methane] | -0.659 ± 0.14 | -2.27 ± 0.61 | -2.24 ± 0.039 | -2.78 ± 0.38 | -2.52 ± 0.39 | -2.46 ± 0.15 | -1.8 ± 0.081 | 0.228 ± 0.61 | 
O=C(O)C(Cl)Cl [Dichloroacetic acid] | -1.93 ± 1.3 | -1.93 ± 0.89 | -1.5 ± 1.6 | -2.38 ± 1.1 | -2.6 ± 1.3 | -1.71 ± 0.32 | -2.34 ± 0.81 | 0.0869 ± 1.1 | 
ClC1(Cl)C2(Cl)C3(Cl)C4(Cl)C(Cl)(Cl)C5(Cl)C3(Cl)C1(Cl)C5(Cl)C24Cl (configuration not stated) [Mirex] |  | -1.3 ± 1.1 |  | -2.25 ± 0.86 | -1.59 ± 0.079 | -1.21 ± 0.25 | -1.01 ± 0.41 | 0.619 ± 0.41 | LDH release cytotoxicity (0.031623 µM): 1.5 ± 0.54%; LDH release cytotoxicity (0.316228 µM): -1.85 ± 0.6%
Cc1ccc(N)cc1O [5-Amino-2-methylphenol] | -0.861 ± 0.26 | -1.2 ± 1.2 | -0.469 ± 1.2 | -1.04 ± 0.78 | -0.613 ± 0.33 | -0.636 ± 0.094 | -0.124 ± 0.049 | 0.121 ± 0.6 | 
Cc1cccc(N)c1 [3-Methylaniline] | -1.1 ± 0.99 | -0.218 ± 0.41 | -1 ± 0.32 | -0.834 ± 0.35 | -0.813 ± 0.085 | 0.339 ± 0.18 | 0.0207 ± 0.7 | 1.94 ± 0.54 | 
C1=CCCC=CCCC=CCC1 [1,5,9-Cyclododecatriene] |  |  |  |  |  |  |  |  | LDH release cytotoxicity (0.032888 µM): 0.325 ± 0.27%; LDH release cytotoxicity (0.104 µM): -1.08 ± 0.16%; LDH release cytotoxicity (0.328877 µM): -2.13 ± 1.5%; LDH release cytotoxicity (1.04 µM): -1.59 ± 0.41%; LDH release cytotoxicity (3.28877 µM): -1.09 ± 0.33%; LDH release cytotoxicity (10.4 µM): -1.273 ± 0.012%; LDH release cytotoxicity (32.8877 µM): -1.4 ± 0.08%; LDH release cytotoxicity (104 µM): 0.633 ± 0.4%
NCCOCCOCCN [2,2'-[Ethane-1,2-diylbis(oxy)]diethanamine] | -0.945 ± 0.74 | -1.12 ± 0.47 | -0.214 ± 0.033 | 0.303 ± 0.8 | 2.6 ± 0.91 | 2.46 ± 0.46 | 1.93 ± 0.86 | 4 ± 0.68 | 
CCN(CC)C(=O)c1cccc(C)c1 [DEET] |  |  |  |  |  |  |  |  | LDH release cytotoxicity (0.03305 µM): -1.66 ± 0.043%; LDH release cytotoxicity (0.1045 µM): -2.06 ± 0.73%; LDH release cytotoxicity (0.330458 µM): -2.58 ± 0.48%; LDH release cytotoxicity (1.045 µM): -2.44 ± 0.8%; LDH release cytotoxicity (3.30458 µM): -2.59 ± 0.4%; LDH release cytotoxicity (10.45 µM): -2.53 ± 0.61%; LDH release cytotoxicity (33.0458 µM): -1.85 ± 1%; LDH release cytotoxicity (104.5 µM): -1.16 ± 0.13%
O=C1CN(N=Cc2ccc([N+](=O)[O-])o2)C(=O)N1 [Nitrofurantoin] | -0.977 ± 0.36 | -1.36 ± 0.74 | -1.01 ± 0.51 | -0.456 ± 1.2 | -1.09 ± 0.89 | -0.861 ± 0.77 | -0.189 ± 0.6 | 2.15 ± 0.92 | 
CC(C)N1C(=O)c2ccccc2NS1(=O)=O [Bentazone] | -0.772 ± 0.46 | -0.547 ± 0.14 | 0.0696 ± 0.91 | -0.283 ± 0.7 | -0.149 ± 0.18 | 0.303 ± 0.12 | -0.174 ± 0.19 | 2.45 ± 1.1 | 
COc1ccc(S(=O)(=O)N2C(=O)C(c3ccccc3OC)(N3CC(O)CC3C(=O)N(C)C)c3cc(Cl)ccc32)c(OC)c1 (configuration not stated) [Nelivaptan] | -0.817 ± 0.14 | 0.214 ± 1.6 | 0.146 ± 0.67 | -0.447 ± 0.43 | -0.164 ± 0.61 | 0.998 ± 1.2 | -0.141 ± 0.64 | -0.056 ± 0.061 | 
COC(=O)c1c(C(F)F)nc(C(F)(F)F)c(C2=NCCS2)c1CC(C)C [Thiazopyr] | -0.958 ± 2.2 | -0.18 ± 0.21 | -0.693 ± 0.24 | -0.8 ± 0.35 | -0.567 ± 0.015 | -0.719 ± 0.32 | -0.722 ± 0.28 | -0.433 ± 0.5 | 
COc1cc(OC)nc(NC(=O)NS(=O)(=O)c2ncccc2OCC(F)(F)F)n1 [Trifloxysulfuron-sodium] | -1.39 ± 0.15 | -0.662 ± 0.68 | -1.7 ± 1.1 | -1.75 ± 1.3 | -1.37 ± 0.17 | -1.12 ± 0.68 | -1.62 ± 0.26 | 0.885 ± 0.33 | 
CCOP(=S)(OCC)SCCSCC [Disulfoton] | -1.14 ± 0.34 | -1.12 ± 0.75 | -1.03 ± 0.2 | -1.51 ± 0.2 | -1.34 ± 0.37 | -1.32 ± 0.63 | -1.01 ± 0.54 | -0.345 ± 0.13 | 
